US20240398781A1, “SPIROCYCLIC CYCLIC MODULATORS OF CHOLESTEROL BIOSYNTHESIS AND THEIR USE FOR PROMOTING REMYELINATION” (GENENTECH, INC., priority 2021, published 2024)
Read-outs that look alike come from different tables or passages of the source.

Columns and labels:
[1] = target: human emopamil binding protein and human 7-dehydrocholesterol reductase co-expressing cells (hEBP-DHCR7 membrane) (Homo sapiens (Human), UniProt Q15125); assay: Radioligand filter binding assay on hEBP-DHCR7 membrane; settings: [3H]-(S)-6-(2-Methyl-3-(6-(trifluoromethyl)pyridin-3-yl)propyl)-2-thia-6-azaspiro[3.4]octane 2,2-dioxide radioligand, HEK293 membrane co-expressing hEBP and hDHCR7
Chain of human emopamil binding protein and human 7-dehydrocholesterol reductase co-expressing cells (hEBP-DHCR7 membrane) (Q15125 whole entry): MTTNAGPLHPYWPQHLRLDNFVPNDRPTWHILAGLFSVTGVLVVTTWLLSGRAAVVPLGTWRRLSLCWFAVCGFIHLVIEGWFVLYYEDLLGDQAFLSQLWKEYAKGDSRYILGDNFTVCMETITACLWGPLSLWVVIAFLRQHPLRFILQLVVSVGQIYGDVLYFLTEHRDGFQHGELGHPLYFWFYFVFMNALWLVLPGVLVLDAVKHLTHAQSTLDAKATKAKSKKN
Method in brief: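 HEK293 cells transiently co-expressing human EBP and DHCR7 supplied whole-cell membranes (10 μg/well), incubated 3 h at 22 °C with [3H]-labelled spiro-octane dioxide ligand (added at 25 nM) and compound (0.06-5000 nM final, 8 doses, n=2). Bound ligand was collected on PEI-treated GF/B filters and counted by scintillation. IC50 was Hill-fitted from % inhibition and reported as Ki.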

[2] = test system: EBP (zymostenol accumulation in EpiSC-derived OPCs); assay: GC/MS-based sterol profiling, zymostenol accumulation in OPCs; type: cell-based, mouse; settings: EpiSC-derived OPCs, 24 hr treatment, 8 doses from 0.15 nM to 333 nM, read-out: Zymostenol GCMS EC50
Method in brief: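 EpiSC-derived OPCs (100,000/well) were treated 24 h in N2B27 without growth factors. Sterols were TMS-derivatized and analysed by GC/MS full-scan EI, quantified against cholesterol-d7. Zymostenol was normalized to the level after 24 h with 100 nM positive control reference.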

EpiSC-derived OPCs = assay: In vitro phenotypic screening of OPCs (MBP staining, high-content imaging); type: cell-based, mouse; settings: percentage of MBP+ oligodendrocytes, 3 days, 0.5 nM to 1000 nM, read-out: OPC EC50
Procedure: To assess effects of treatments on OPCs, all treatments were assayed in two or more independent platings of epiblast stem cell-derived OPCs (EpiSC). EpiSC-derived OPCs were obtained using in vitro differentiation protocols and culture conditions described previously (Najm et al, 2011, Nature Methods). OPCs were expanded and frozen down in aliquots. OPCs were thawed into growth conditions for at least one passage before use in further assays.
EpiSC-derived OPCs were grown and expanded in poly-L-ornithine (PO) and laminin-coated flasks in N2B27 media (DMEM/F12 (Gibco), N2-MAX (R&D Systems), B-27 (ThermoFisher), and GlutaMax (Gibco)) supplemented with FGF2 ([…], R&D systems, 233-FB-025) and PDGF-AA ([…], R&D systems, 233-AA-050) before harvesting for experiments. The cells were seeded onto poly-L-ornithine or poly-D-lysine coated CellCarrier Ultra plates (PerkinElmer) coated with laminin (Sigma, L2020) at a density of 150,000/cm^2 in N2B27 media without growth factors. For dose-response testing, a 1000× compound stock in dimethyl sulphoxide (DMSO) was added to assay plates, resulting in 8-point dose curves with final concentrations between 1000 nM and 0.5 nM. Positive controls and DMSO vehicle controls were included in each assay plate. Cells were incubated under standard conditions (37° C., 5% CO2) for 3 days and fixed with 4% paraformaldehyde (PFA) in phosphate buffered saline (PBS) for 20 min. Fixed plates were washed with PBS, permeabilized with 0.1% Triton X-100, and blocked with 10% donkey serum (v/v) in PBS for 40 min. Then, cells were labelled with MBP antibodies (Abcam, ab7349; 1:200) for 2 h at room temperature, washed with PBS, and stained with Alexa Fluor conjugated secondary antibodies (1:500) for 45 min. Nuclei were visualized by DAPI staining (Sigma; 1 μg/ml), followed by further PBS washes.
Cells and cell culture plates were imaged on the Operetta High Content Imaging and Analysis system (PerkinElmer). Analysis (PerkinElmer Harmony and Columbus software) began by identifying intact nuclei stained by DAPI. The peri-nuclear region of each cell was then cross-referenced with the mature myelin protein (MBP) stain to identify oligodendrocyte nuclei, and from this the percentage of oligodendrocytes was calculated. EC50 values were calculated using The Levenberg-Marquardt algorithm to fit a Hill equation to dose-response data (0.5 nM to 1000 nM).

SMILES: O=S1(=O)CC2(CCCN([C@H]3CC[C@H](c4ccc(C(F)(F)F)nc4)CC3)C2)C1 [Compound 79, 6-((1r,4r)-4-(6-(Trifluoromethyl)pyridin-3-yl)cyclohexyl)-2-thia-6-azaspiro[3.5]nonane 2,2-dioxide]
- Ki [1]: 22 nM
- EC50 ([2]; Mus musculus, 24 h): 9.7 nM
- EC50 (EpiSC-derived OPCs; Mus musculus, 72 h): 36 nM

SMILES: O=S1(=O)CCC2(CCN([C@H]3CC[C@@H](c4ccc(C(F)(F)F)nc4)CC3)C2)CC1 [Compound 95B, 2-((1s,4s)-4-(6-(trifluoromethyl)pyridin-3-yl)cyclohexyl)-8-thia-2-azaspiro[4.5]decane 8,8-dioxide]
- Ki [1]: 170 nM
- EC50 ([2]; Mus musculus, 24 h): 22 nM
- EC50 (EpiSC-derived OPCs; Mus musculus, 72 h): 43 nM

SMILES: Cc1nc(C(F)(F)F)ccc1[C@H]1CC[C@H](N2CCC3(C2)CS(=O)(=O)C3)CC1 [Compound 51A, 6-((1r,4r)-4-(2-Methyl-6-(trifluoromethyl)pyridin-3-yl)cyclohexyl)-2-thia-6-azaspiro[3.4]octane 2,2-dioxide]
- Ki [1]: 26 nM
- EC50 ([2]; Mus musculus, 24 h): 8.3 nM
- EC50 (EpiSC-derived OPCs; Mus musculus, 72 h): 18 nM

SMILES: O=S1(=O)CC2(CCN([C@@H]3CCC[C@@H](c4ccc(C(F)(F)F)nc4)C3)CC2)C1 (single isomer, unassigned) [56D*]
- Ki [1]: 65 nM
- EC50 ([2]; Mus musculus, 24 h): 150 nM
- EC50 (EpiSC-derived OPCs; Mus musculus, 72 h): 690 nM

SMILES: O=S1(=O)CC[C@]2(CCCN([C@H]3CC[C@@H](c4cc(C(F)(F)F)nn4C4CC4)CC3)C2)C1 (single isomer, unassigned) [69C*]
- Ki [1]: 27 nM
- EC50 ([2]; Mus musculus, 24 h): 6 nM
- EC50 (EpiSC-derived OPCs; Mus musculus, 72 h): 44 nM

SMILES: CCn1nc(-c2ccc(C(F)(F)F)nc2)nc1[C@H]1CC[C@@H](N2CCC3(CC2)CS(=O)(=O)C3)CC1 (stereo in doubt) [43B*, (cis)-7-(-4-(1-ethyl-3-(6-(trifluoromethyl)pyridin-3-yl)-1H-1,2,4-triazol-5-yl)cyclohexyl)-2-thia-7-azaspiro[3.5]nonane 2,2-dioxide]
- Ki [1]: 510 nM
- EC50 ([2]; Mus musculus, 24 h): 80 nM
- EC50 (EpiSC-derived OPCs; Mus musculus, 72 h): 160 nM

SMILES: O=S1(=O)CC2(CCN([C@@H]3CC[C@@H](c4ccc(C(F)(F)F)nc4)C3)CC2)C1 (single isomer, unassigned) [57A*]
- Ki [1]: 160 nM
- EC50 ([2]; Mus musculus, 24 h): 24 nM
- EC50 (EpiSC-derived OPCs): 65 nM

SMILES: O=S1(=O)CC2(CCN([C@H]3CC[C@H](c4ccnc(C(F)(F)F)c4)CC3)C2)C1 [Compound 60A, 6-((1r,4r)-4-(2-(trifluoromethyl)pyridin-4-yl)cyclohexyl)-2-thia-6-azaspiro[3.4]octane 2,2-dioxide]
- Ki [1]: 133 nM
- EC50 ([2]; Mus musculus, 24 h): 10 nM
- EC50 (EpiSC-derived OPCs; Mus musculus, 72 h): 21 nM

SMILES: O=S1(=O)CC2(CCN([C@H]3CC[C@H](c4ccc(C(F)(F)F)cc4)C3)C2)C1 [Compound 1D, 6-((1S,3S)-3-(4-(trifluoromethyl)phenyl)cyclopentyl)-2-thia-6-azaspiro[3.4]octane 2,2-dioxide]
- Ki [1]: 15 nM
- EC50 ([2]; Mus musculus, 24 h): 4.9 nM
- EC50 (EpiSC-derived OPCs; Mus musculus, 72 h): 18 nM

SMILES: O=S1(=O)CCC2(CCN([C@H]3CC[C@H](c4ccc(C(F)(F)F)nc4)CC3)C2)CC1 [Compound 95A, 2-((1r,4r)-4-(6-(Trifluoromethyl)pyridin-3-yl)cyclohexyl)-8-thia-2-azaspiro[4.5]decane 8,8-dioxide]
- Ki [1]: 710 nM
- EC50 ([2]; Mus musculus, 24 h): 170 nM
- EC50 (EpiSC-derived OPCs; Mus musculus, 72 h): 520 nM

SMILES: O=S1(=O)CCC2(CCN([C@H]3CC[C@H](c4ccc(C(F)(F)F)cn4)CC3)C2)CC1 [84B*, 2-((1s,4s)-4-(5-(Trifluoromethyl)pyridin-2-yl)cyclohexyl)-8-thia-2-azaspiro[4.5]decane 8,8-dioxide]
- Ki [1]: 69 nM
- EC50 ([2]; Mus musculus, 24 h): 27 nM
- EC50 (EpiSC-derived OPCs; Mus musculus, 72 h): 130 nM

SMILES: O=S1(=O)CC2(CCN([C@H]3CC[C@H](c4ccc(F)c(F)c4)CC3)C2)C1 [Compound 70A, 6-((1r,4r)-4-(3,4-difluorophenyl)cyclohexyl)-2-thia-6-azaspiro[3.4]octane 2,2-dioxide]
- Ki [1]: 6.5 nM
- EC50 ([2]; Mus musculus, 24 h): 4 nM
- EC50 (EpiSC-derived OPCs; Mus musculus, 72 h): 18 nM

SMILES: O=S1(=O)CC2(CCN(C3CCN(c4ncc(F)cc4C(F)(F)F)CC3)C2)C1 [Compound 45, 6-(1-(5-Fluoro-3-(trifluoromethyl)pyridin-2-yl)piperidin-4-yl)-2-thia-6-azaspiro[3.4]octane 2,2-dioxide]
- Ki [1]: 17 nM
- EC50 ([2]; Mus musculus, 24 h): 13 nM
- EC50 (EpiSC-derived OPCs; Mus musculus, 72 h): 49 nM

SMILES: CC(C)n1nc(-c2cccc(C(F)(F)F)n2)cc1[C@@H]1CC[C@@H](N2CCC3(CC2)CS(=O)(=O)C3)C1 (single isomer, unassigned) [46A*]
- Ki [1]: 31 nM
- EC50 ([2]; Mus musculus, 24 h): 1.3 nM
- EC50 (EpiSC-derived OPCs; Mus musculus, 72 h): 2.5 nM

SMILES: CC(C)(C)n1nc(C2CC2)nc1[C@@H]1CC[C@H](N2CCC3(C2)CS(=O)(=O)C3)C1 [Compound 74A, 6-((1S,3R)-3-(1-(tert-butyl)-3-cyclopropyl-1H-1,2,4-triazol-5-yl)cyclopentyl)-2-thia-6-azaspiro[3.4]octane 2,2-dioxide]
- Ki [1]: 154 nM
- EC50 ([2]; Mus musculus, 24 h): 31 nM
- EC50 (EpiSC-derived OPCs; Mus musculus, 72 h): 230 nM

SMILES: O=S1(=O)CC2(CCN(C3CC[C@H](c4nc(-c5cccc(C(F)(F)F)n5)nn4C4CC4)C3)CC2)C1 (stereo in doubt) [42C*, 7-((1S,3S)-3-(1-Cyclopropyl-3-(6-(trifluoromethyl)pyridin-2-yl)-1H-1,2,4-triazol-5-yl)cyclopentyl)-2-thia-7-azaspiro[3.5]nonane 2,2-dioxide]
- Ki [1]: 1180 nM
- EC50 ([2]; Mus musculus, 24 h): 88 nM
- EC50 (EpiSC-derived OPCs; Mus musculus, 72 h): 190 nM

SMILES: O=S1(=O)CC2(CCN([C@@H]3CC[C@@H](c4nc(-c5cccc(C(F)(F)F)n5)nn4C4CC4)C3)CC2)C1 (single isomer, unassigned) [42B*]
- Ki [1]: 390 nM
- EC50 ([2]; Mus musculus, 24 h): 58 nM
- EC50 (EpiSC-derived OPCs; Mus musculus, 72 h): 180 nM

SMILES: CC(C)(C)n1nc(C(F)(F)F)cc1[C@H]1CC[C@H](N2CCC3(C2)CS(=O)(=O)C3)CC1 [Compound 73, 6-((1r,4r)-4-(1-(tert-Butyl)-3-(trifluoromethyl)-1H-pyrazol-5-yl)cyclohexyl)-2-thia-6-azaspiro[3.4]octane 2,2-dioxide]
- Ki [1]: 21 nM
- EC50 ([2]; Mus musculus, 24 h): 33 nM
- EC50 (EpiSC-derived OPCs; Mus musculus, 72 h): 110 nM

SMILES: O=S1(=O)CC2(CCN([C@H]3CC[C@H](c4ccc(C(F)(F)F)nc4C4CC4)CC3)C2)C1 [Compound 75, 6-((1r,4r)-4-(2-Cyclopropyl-6-(trifluoromethyl)pyridin-3-yl)cyclohexyl)-2-thia-6-azaspiro[3.4]octane 2,2-dioxide]
- Ki [1]: 11 nM
- EC50 ([2]; Mus musculus, 24 h): 3.2 nM
- EC50 (EpiSC-derived OPCs; Mus musculus, 72 h): 5 nM

SMILES: CC(C)n1nc(C(F)(F)F)cc1[C@@H]1CCC[C@H](N2CCC3(CC2)CS(=O)(=O)C3)C1 (single isomer, unassigned) [78B*]
- Ki [1]: 26 nM
- EC50 ([2]; Mus musculus, 24 h): 22 nM
- EC50 (EpiSC-derived OPCs; Mus musculus, 72 h): 140 nM

SMILES: O=S1(=O)CC2(CCN([C@@H]3CCCN(c4ccc(C(F)(F)F)cc4)C3)CC2)C1 (single isomer, unassigned) [55A*]
- Ki [1]: 2.8 nM
- EC50 ([2]; Mus musculus, 24 h): 2.3 nM
- EC50 (EpiSC-derived OPCs; Mus musculus, 72 h): 15 nM

SMILES: O=S1(=O)CC2(CCN(C3CC[C@H](c4nc(-c5cccc(C(F)(F)F)n5)nn4C4CC4)C3)CC2)C1 (stereo in doubt) [42D*, 7-((1R,3S)-3-(1-Cyclopropyl-3-(6-(trifluoromethyl)pyridin-2-yl)-1H-1,2,4-triazol-5-yl)cyclopentyl)-2-thia-7-azaspiro[3.5]nonane 2,2-dioxide]
- Ki [1]: 670 nM
- EC50 ([2]; Mus musculus, 24 h): 45 nM
- EC50 (EpiSC-derived OPCs; Mus musculus, 72 h): 120 nM

SMILES: O=S1(=O)CC2(CCN([C@@H]3CC[C@@H](c4ccc(C(F)(F)F)nc4)C3)CC2)C1 (single isomer, unassigned) [57B*]
- Ki [1]: 200 nM
- EC50 [2]: 44 nM
- EC50 (EpiSC-derived OPCs): 160 nM

SMILES: O=S1(=O)CC2(CCN(C3CCN(c4ncc(C(F)(F)F)cc4F)CC3)CC2)C1 [Compound 52, 7-(1-(3-Fluoro-5-(trifluoromethyl)pyridin-2-yl)piperidin-4-yl)-2-thia-7-azaspiro[3.5]nonane 2,2-dioxide]
- Ki [1]: 18 nM
- EC50 ([2]; Mus musculus, 24 h): 4.8 nM
- EC50 (EpiSC-derived OPCs; Mus musculus, 72 h): 7.7 nM
